One series deals with viruses. To be noted: cited from earlier work.
The conditions of series [1]: literature; cited from earlier work.
Series [2] has as its system acyclovir-resistant HSV-2. As to the kind of experiment: Plaque inhibition, acyclovir-resistant HSV-2 in Vero cells. It counts as cell-based. To be noted: FIG. 7, Panel B.
The subject of a further series is wild-type HSV-2. Nature of the series: Plaque inhibition, wild-type HSV-2 in Vero cells. To be noted: FIG. 7, Panel A. It counts as cell-based.
The test system of a further series is HIV-1. Nature of the series: HIV-1 replication in PHA/IL-2-stimulated human peripheral blood mononuclear cells (p24 ELISA). Type of series: cell-based. Particulars: n-docosanol/Pluronic, FIG. 13. The protocol:
Human peripheral blood mononuclear cells were cultured in medium containing 1 μg/ml PHA plus 5 units/ml IL-2 alone or also containing 100 μg/ml PFA, […] F-68 control vehicle contained in the high dose of n-docosanol/Pluronic. After overnight incubation, the cultures were inoculated with HIV-1 at a multiplicity of infection of 1 virion/cell. After 24 hours incubation at 37° C., the cultures were washed and inoculated with fresh medium containing PHA and IL-2, but lacking inhibitor. Replication of HIV-1 was determined 4 days later by quantitation of viral antigens by a p24-specific ELISA for HIV-1.
Our initial studies on HIV were conducted in collaboration with a U.S. National Institutes of Health laboratory and one of several experiments of this type is summarized in FIG. 13. Normal human peripheral blood mononuclear cells were activated with […] PHA plus 5 units/ml of IL-2 in medium alone or in the presence of the n-docosanol, Pluronic F-68 control vehicle, or phosphonoformic acid (PFA). The next day, the cultures were inoculated with HIV-1 and examined 4 days later for evidence of viral replication by detection of the p24 viral antigen. […] The dose response of HIV-1 to n-docosanol indicates an ED 50 of about 6-9 mM.
Background: An ELISA detects its analyte on a solid surface through an enzyme-linked reagent.

The subject of series [3] is herpes. To be noted: literature, animal studies; cited from earlier work.
Series [4] relates to herpes. To be noted: literature, tissue culture; cited from earlier work.

Where two headings read alike, the source gives them in different places.

`CCCCCCCCCCO` [Formulation C-10]: in the series with viruses (literature), the antiviral activity entry is on record as “significant antiviral activity”. For the same molecule, the “cytotoxic and hemolytic effects” value in series [1] is “exhibited cytotoxic and hemolytic effects”.

On to `CCCCCCCCCCCCO` [Formulation C-12], for which the antiviral activity result in the series on viruses (literature) is “significant antiviral activity”. Moreover, the “cytotoxic and hemolytic effects” value in series [1] is “exhibited cytotoxic and hemolytic effects”. As for `Nc1nc2c(ncn2COCCO)c(=O)[nH]1` [acyclovir, reference compound], in series [2], the “inhibition of acyclovir-resistant HSV-2 mutant” value is recorded as “fails to respond”. In addition, the “inhibition of plaque formation” value in the series on wild-type HSV-2 is on record as “inhibit plaque formation by wild type HSV-2 equally”. As for `OCc1ccccc1` [benzyl alcohol], in the series with viruses (under certain circumstances, U.S. Pat. No. 4,200,655), the antiviral activity result was “some antiviral activity”.

On to `O=C(O)P(=O)(O)O` [phosphonoformic acid, reference compound], for which the “inhibition of HIV-1 replication” value in the series on HIV-1 is recorded as “very potent antiviral compound”. Regarding `CCCCCCCCCCCCCCCCCCCCCCCCCCCCCCO` [triacontanol], the anti-herpes activity result in the series on herpes [3] is “active as an anti-herpes agent”. For the same molecule, in the series on herpes [4], the direct antiviral activity entry is “lacked direct antiviral activity”.

These data come from patent US5534554A, “Sucrose ester-C20 to C28 alcohol formulations” (priority 1994, dated 1996).
